Source: PMC3221505, “Simple, Rapid and Validated LC Determination of Lopinavir in Rat Plasma and its Application in Pharmacokinetic Studies” (Scientia Pharmaceutica, 2011)

Tests used:
[1] = Pharmacokinetic study after intravenous bolus administration of LPV in rats; assay type: in vivo; settings: male Wistar rats, 5 mg kg^−1, n = 6, plasma
Experimental: Formulation was administered through tail vein in male Wistar rats (n = 6), weighing 180 to 220 g, at a dose of 5 mg kg^−1 [35]. Blood samples were drawn from retro-orbital plexus of Wistar rats at 0.083, 0.167, 0.25, 0.5, 1, 2, 3, 4, 6, 8, 12 and 24 h post dose in microfuge tube pretreated with sodium citrate solution (3.8% w/v). A baseline blank plasma sample was drawn from each animal before drug administration. All samples were processed according to the procedure described earlier and analyzed using the validated HPLC method.

[2] = Freeze-thaw stability of LPV in rat plasma; assay type: in vitro ADME, Wistar rat; settings: rat plasma QC samples, end of three freeze-thaw cycles, frozen at −20 °C
Experimental: Total of four sets were prepared in triplicates and one set of the prepared concentrations was analyzed on the day of preparation (no freeze-thaw cycle) and the remaining three sets were frozen at −20 °C for 24 h. Frozen samples were thawed by keeping the sealed tubes at room temperature for at least 1 h. One set in triplicate was analyzed and the remaining two sets were kept at −20 °C for freezing and were analyzed after two and three freeze-thaw cycles.

[3] = Post extraction stability of processed samples of LPV in rat plasma; assay type: physicochemical, Wistar rat; settings: processed rat plasma QC samples kept in auto sampler rack, 24 h
Experimental: Processed samples were kept in the sample rack of auto sampler and samples were analyzed in triplicates every 6 h for 24 h period on the day of preparation. The percentage deviation from the mean concentrations observed at zero time was calculated.

area under the first-moment curve (AUMC) [1]: 4403.07 ± 171.33 h^2 ng mL^−1
AUC ([1]; rat, read-out: area under the curve (AUC)): 3850 ± 264 ng·h/mL
C0 ([1]; rat, read-out: concentration at time zero (Co)): 3170 ± 290 ng/mL
half-life ([1]; rat, read-out: elimination half-life (t½) (converted)): 49.2 ± 1.8 min
MRT ([1]; rat, read-out: mean retention time (MRT)): 69 ± 3 min
clearance ([1]; rat, read-out: total plasma clearance (CLs) (converted)): 22.4 mL/min/kg
Vd ([1]; rat, read-out: volume of distribution (Vss)): 1.59 ± 0.146 L/kg
deviation from the zero time concentration (freeze-thaw stability) [2]: less than 8.0%
maximum deviation from the zero time concentration (post extraction stability) [3]: less than 2.0%
SMILES: Cc1cccc(C)c1OCC(=O)N[C@@H](Cc1ccccc1)[C@@H](O)C[C@H](Cc1ccccc1)NC(=O)[C@H](C(C)C)N1CCCNC1=O [LPV, (2S)-N-[(1S,3S,4S)-1-benzyl-4-{[(2,6-dimethyl-phenoxy)acetyl]amino}-3-hydroxy-5-phenylpentyl]-3-methyl-2-(2-oxotetrahydropyrimidin-1(2H)-yl)butanamide]
